Measurements as given in paper PMC11079024, “Identification of a family of species-selective complex I inhibitors as potential anthelmintics” (Nature Communications, 2024).
Where “and” joins values, the source holds several entries; their conditions need not be identical. Identical values can stand only once. Like-named read-outs stand apart in the source and are kept apart here.

How the values were obtained:
[1] = test system: L1 wild-type C. elegans; conditions: for Screen "Hit" / Relative Motility: 50 μM; for Relative Motility: relative to DMSO controls, single biological replicate
[2] = target: C. elegans (N2) complex I (NADH:ubiquinone oxidoreductase) (Caenorhabditis elegans, UniProt P24887+Q93873+Q94360); assay: biochemical; type: biochemical; conditions: for percent (%) in vitro complex I activity relative to solvent control: mitochondria
C. elegans (N2) complex I (NADH:ubiquinone oxidoreductase), sequence (Q94360 17-199): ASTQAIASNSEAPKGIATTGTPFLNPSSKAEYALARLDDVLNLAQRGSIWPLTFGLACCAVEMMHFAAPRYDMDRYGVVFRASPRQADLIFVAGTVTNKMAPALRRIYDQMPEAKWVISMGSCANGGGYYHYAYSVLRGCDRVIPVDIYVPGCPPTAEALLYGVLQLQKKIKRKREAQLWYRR
C. elegans (N2) complex I (NADH:ubiquinone oxidoreductase), sequence (P24887 whole entry): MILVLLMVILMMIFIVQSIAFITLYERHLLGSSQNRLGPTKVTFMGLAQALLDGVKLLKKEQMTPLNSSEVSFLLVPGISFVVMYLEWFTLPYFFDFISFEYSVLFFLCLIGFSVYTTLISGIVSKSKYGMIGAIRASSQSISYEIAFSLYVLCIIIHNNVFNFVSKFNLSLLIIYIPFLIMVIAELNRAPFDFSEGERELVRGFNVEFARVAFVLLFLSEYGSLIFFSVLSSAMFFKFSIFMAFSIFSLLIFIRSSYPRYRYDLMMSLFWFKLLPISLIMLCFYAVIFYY
C. elegans (N2) complex I (NADH:ubiquinone oxidoreductase), sequence (Q93873 31-482): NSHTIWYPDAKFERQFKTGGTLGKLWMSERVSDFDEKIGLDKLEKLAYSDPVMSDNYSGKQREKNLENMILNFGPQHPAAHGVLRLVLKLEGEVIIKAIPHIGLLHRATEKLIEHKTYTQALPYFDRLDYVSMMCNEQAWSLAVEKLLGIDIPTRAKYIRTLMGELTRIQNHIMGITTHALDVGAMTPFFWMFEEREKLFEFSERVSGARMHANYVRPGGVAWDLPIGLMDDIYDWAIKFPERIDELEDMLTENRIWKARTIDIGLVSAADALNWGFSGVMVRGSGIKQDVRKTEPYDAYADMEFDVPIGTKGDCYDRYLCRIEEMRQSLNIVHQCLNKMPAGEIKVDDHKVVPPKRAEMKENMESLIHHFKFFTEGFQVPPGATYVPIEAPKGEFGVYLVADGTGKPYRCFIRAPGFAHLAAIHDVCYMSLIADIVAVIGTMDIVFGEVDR
Protocol: Mitochondria were isolated from the following free-living nematode strains: C. elegans—N2, CB3474, ECA882, ECA917, ECA1075, ECA1080; C. briggsae—AF16; P. pacificus—PS312; and P. hermaphrodita—B178. With the exception of the P. hermaphrodita strain B178, adult worms of each strain were grown in bulk through liquid culture to obtain mitochondria in sufficient quantities. Due to poor growth in liquid media, mixed stage populations of P. hermaphrodita were washed off and collected from NGM plates seeded with OP50. The isolation of mitochondria from all free-living nematode strains followed the protocol previously outlined in Burns et al.[24]. In brief, a 1 L saturated culture of E. coli HB101 was concentrated 20-fold in 50 mL complete S-medium. ~500,000 L1 worms synchronized from an embryo preparation performed the day prior were added to the S-media/HB101 suspension and grown to adulthood over the course of 3.5 days at 20 °C with shaking at 165 rpm. Following growth, worms were collected in 10 ×15 mL conical tubes and washed 7 times in M9 buffer. Worm suspensions were then combined into a single 15 mL conical tube and diluted to a final volume of 15 mL with M9 buffer. 1 mL aliquots of worm suspension were then distributed to 15 × 1.5 mL screw-cap microcentrifuge tubes and were pelleted at 500 g for 1 min. Excess M9 was aspirated without disturbing the worm pellet. 600 μL ice-cold isolate buffer A (250 mM sucrose, 10 mM Tris (pH 7.5), 1 mM EDTA, 1 mM PMSF (freshly prepared)) and 300 μL cold glass beads were then added to each tube. Tubes were incubated on ice for 10 min, and the worms were then lysed by bead beating (6 x 30 s, with 1 min cooling intervals). Tubes containing worm lysate were centrifuged at 1,000 g for 10 min at 4 °C and the supernatant was transferred to 15 new microcentrifuge tubes on ice. The tubes were centrifuged a second time at 1,000 g for 10 min at 4 °C and the supernatant was once again transferred to 15 new microcentrifuge tubes on ice. These tubes were then centrifuged at 16,000 g for 10 min at 4 °C. The resulting mitochondrial pellet was washed twice by re-suspension in 300 μL of ice-cold isolate buffer B (250 mM sucrose, 10 mM Tris (pH 7.5), 1 mM EDTA). Following the final wash, isolation buffer was aspirated from each tube and the pellets were flash-frozen in ethanol/dry ice and stored at −80 °C until needed.
(§1) The enzymatic activities of individual ETC complexes (I-IV) were assessed spectrophotometrically in isolated mitochondria using a Varioskan LUX Multimode plate reader (ThermoFisher Scientific). Mitochondrial pellets previously isolated were thawed on ice and resuspended in ice-cold isolation buffer (250 mM sucrose, 10 mM Tris (pH 7.5), 1 mM EDTA). The BCA assay (Walker, 1994) was used to quantify the protein concentration of mitochondria suspensions; solutions were diluted to a concentration of 0.2 mg/mL for use in all assays. For the complex I assay, mitochondria pellets were freeze-thawed on ice three times to increase enzyme accessibility. […] 20 μL mitochondria suspension was then added/mixed with a pipette to initiate the reaction. Immediately following the addition of mitochondria, absorbance was measured (complex I and II: 600 nm; complex III and IV: 550 nm) in 30 s intervals over 15 min. Enzymatic activity was determined in each reaction by plotting absorbance versus time and calculating the slope of the curve during the initial linear phase of the reaction. […] Percent activity of each complex was calculated by dividing the enzyme-specific activity of each well by the enzyme-specific activity of the corresponding solvent controls.
(§2) Chemical solutions were prepared in complex I assay buffer composed of 25 mM KPi buffer (pH 7.5), 3 mg/mL bovine serum albumin (BSA), 80 μM NADH, 60 μM decylubiquinone, 160 μM DCIP, 2 μM antimycin A and 2 mM KCN.
For preliminary screens of hit compounds, compounds were screened at 100 μM; data are the average of at least three biological replicates.

[3] = target: B. taurus (heart) complex I (Bos taurus, UniProt P03887+P17694+P42026); assay: biochemical; type: biochemical; conditions: heart mitochondria; read-out: B. taurus Complex I IC50
B. taurus (heart) complex I, sequence (P03887 whole entry): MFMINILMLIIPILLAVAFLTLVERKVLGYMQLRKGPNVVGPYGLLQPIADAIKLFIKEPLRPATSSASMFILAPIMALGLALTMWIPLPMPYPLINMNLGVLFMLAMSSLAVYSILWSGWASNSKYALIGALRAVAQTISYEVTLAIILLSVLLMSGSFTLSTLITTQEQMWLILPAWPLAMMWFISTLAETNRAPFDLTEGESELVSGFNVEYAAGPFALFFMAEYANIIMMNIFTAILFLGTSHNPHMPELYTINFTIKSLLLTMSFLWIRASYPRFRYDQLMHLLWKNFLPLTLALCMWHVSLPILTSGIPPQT
B. taurus (heart) complex I, sequence (P17694 34-463): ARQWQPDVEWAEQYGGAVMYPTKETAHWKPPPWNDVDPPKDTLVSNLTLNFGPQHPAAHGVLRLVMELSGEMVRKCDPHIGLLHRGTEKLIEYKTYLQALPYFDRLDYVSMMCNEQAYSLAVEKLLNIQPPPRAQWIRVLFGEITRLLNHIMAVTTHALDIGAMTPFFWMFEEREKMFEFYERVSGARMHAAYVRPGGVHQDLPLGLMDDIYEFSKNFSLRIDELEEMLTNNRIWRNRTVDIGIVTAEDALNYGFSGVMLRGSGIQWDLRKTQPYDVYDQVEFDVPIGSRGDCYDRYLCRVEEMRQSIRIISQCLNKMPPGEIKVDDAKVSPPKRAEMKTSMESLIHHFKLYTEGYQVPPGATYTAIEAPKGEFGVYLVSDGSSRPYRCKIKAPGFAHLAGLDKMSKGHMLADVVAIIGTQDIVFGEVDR
B. taurus (heart) complex I, sequence (P42026 38-216): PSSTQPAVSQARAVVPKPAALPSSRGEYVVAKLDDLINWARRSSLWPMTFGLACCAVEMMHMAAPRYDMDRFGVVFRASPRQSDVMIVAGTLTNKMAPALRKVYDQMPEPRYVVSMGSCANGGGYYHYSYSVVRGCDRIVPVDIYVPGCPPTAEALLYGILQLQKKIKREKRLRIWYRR
Protocol: Six 8–10-week-old C57Bl/6 female mice (Charles River) were freshly dissected, and their livers and hearts collected into separate 1.5 mL microcentrifuge tubes. Organs were flash-frozen in liquid nitrogen and stored at −80 °C prior to use. The heart of a freshly slaughtered adult cow was obtained from a local abattoir (Peel Sausage Inc.), chopped into ~1-inch cubes and collected into 50 mL falcon tubes. Falcon tubes were flash-frozen in a container of dry ice and stored at −80 °C prior to use. Isolation of mitochondria from all mammalian tissue was carried out following the protocol described above. However, due to size, the initial homogenization of tissue was performed by 15 strokes in a dounce homogenizer (mouse heart) or with several 5 s pulses in small Nutribullet blender (cow heart). All mouse protocols for mouse care and dissection were reviewed and approved by the University of Toronto Animal Care Committee, in accordance with the Canadian Council on Animal Care.
as §1, §2
For preliminary screens of hit compounds, compounds were screened at 100 μM; data are the average of at least three biological replicates. The complex I and II activity assays were used for additional dose-response experiments. […] For dose responses of benzimidazole analogs, data represent the average of two biological replicates. For all other dose-responses, data represent the average of at least three biological replicates.

[4] = active or inactive at 50 μM in C. elegans assay of RQ-dependent metabolism
[5] = hit = relative motility below 0.25 3 hours after removal of KCN
[6] = worm motility 3 hours after removal of KCN
[7] = KCN survival assay, hit = relative motility below 0.25
[8] = worm motility 3 hours after the removal of KCN (endpoint)
[9] = active (hit) or inactive (non) at 50 μM in C. elegans assay of RQ-dependent metabolism
[10] = hit = relative motility below 0.25 3 hours after the removal of KCN
[11] = read-out: percent (%) in vitro complex I activity relative to solvent control

Cc1ccccc1Cn1cnc2ccccc21 [Compound 5656207]
Hit [1, 4]: non

CCn1c(NCc2cccc(Br)c2)nc2ccccc21 [Compound 7746308]
Screen "Hit" [1, 5]: Y (hits were identified as compounds that reduced relative motility below 0.25 (75% reduction)) | Relative Motility [1, 6]: 0.200

CCN(CC)CCSc1nc2ccccc2n1Cc1ccccc1 [Compound 5685018]
Screen "Hit" [1, 7]: Y (hits were identified as compounds that reduced relative motility below 0.25 (75% reduction)) | Relative Motility [1, 8]: 0.220

COc1ccc2c(c1)nc(SCc1ccccc1)n2C [Compound 5649512]
Screen "Hit" [1, 5]: Y (hits were identified as compounds that reduced relative motility below 0.25 (75% reduction)) | Relative Motility [1, 6]: 0.190

Cn1c(/C=C/c2ccc(Cl)cc2)nc2ccccc21 [Compound 5663561]
Screen "Hit" [1, 7]: Y (hits were identified as compounds that reduced relative motility below 0.25 (75% reduction)) | Relative Motility [1, 8]: 0.220

c1ccc(Cn2c(-c3cncs3)nc3ccccc32)cc1 [Compound 7815425]
Hit [1, 9]: non

CCC(C)c1ccccc1OCCn1cnc2ccccc21 (centres unmarked) [Compound 7925137]
Screen "Hit" [1, 5]: Y (hits were identified as compounds that reduced relative motility below 0.25 (75% reduction)) | Relative Motility [1, 6]: 0.220

CCCc1nc2ccccc2n1Cc1ccc(C)cc1 [Compound 6607958]
Screen "Hit" [1, 7]: Y (hits were identified as compounds that reduced relative motility below 0.25 (75% reduction)) | Relative Motility [1, 8]: 0.120

Nc1ccc(Oc2ccc(-c3nc4ccccc4[nH]3)cc2)cc1 [Compound 5747231]
Screen "Hit" [1, 5]: Y (hits were identified as compounds that reduced relative motility below 0.25 (75% reduction)) | Relative Motility [1, 6]: 0.130

Brc1cc2nc[nH]c2c2ccccc12 [Compound 7873254]
Screen "Hit" [1, 10]: Y (hits were identified as compounds that reduced relative motility below 0.25 (75% reduction))

CCCSc1ccc2nc(NC(=O)OC)[nH]c2c1 [Albendazole]
percent (%) in vitro complex I activity relative to solvent control ([2]; 0.125 µM): 118.853% and 109.086% and 106.962% | percent (%) in vitro complex I activity relative to solvent control ([2]; 0.313 µM): 114.037% and 108.086% and 98.922% | percent (%) in vitro complex I activity relative to solvent control ([2]; 0.625 µM): 95.184% and 91.388% and 110.521% | percent (%) in vitro complex I activity relative to solvent control ([2]; 1.5 µM): 96.241% and 104.509% and 111.883% | percent (%) in vitro complex I activity relative to solvent control ([2]; 3 µM): 99.535% and 109.848% and 112.347% | percent (%) in vitro complex I activity relative to solvent control ([2]; 15 µM): 97.910% and 114.555% and 112.953% | percent (%) in vitro complex I activity relative to solvent control ([2]; 37.5 µM): 89.237% and 107.533% and 106.445% | percent (%) in vitro complex I activity relative to solvent control ([2]; 75 µM): 100.906% and 79.462% and 105.930% and 106.268% | remaining activity at 0.125 µM [2, 11]: 103% | remaining activity at 0.313 µM [2, 11]: 104% | remaining activity at 0.625 µM [2, 11]: 102% | remaining activity at 1.5 µM [2, 11]: 109% | remaining activity at 3 µM [2, 11]: 106% | remaining activity at 15 µM [2, 11]: 106% | remaining activity at 37.5 µM [2, 11]: 105% | remaining activity at […] [2, 11]: 108%

CCOc1ccc(CNc2nc3ccccc3n2CC)cc1 [Compound 7758171]
Screen "Hit" [1, 5]: Y (hits were identified as compounds that reduced relative motility below 0.25 (75% reduction)) | Relative Motility [1, 6]: 0.180

Cc1ccc(C(C)C)cc1OCC(O)Cn1c(C)nc2ccccc21 (centres unmarked) [Compound 7748492]
Screen "Hit" [1, 5]: Y (hits were identified as compounds that reduced relative motility below 0.25 (75% reduction)) | Relative Motility [1, 6]: 0.220

N#Cc1ccc(CSc2nc3ccc(Br)cc3[nH]2)cc1 [Compound 6726033]
Screen "Hit" [1, 5]: Y (hits were identified as compounds that reduced relative motility below 0.25 (75% reduction)) | Relative Motility [1, 6]: 0.140

COc1ccc(CSc2nc3ccccc3[nH]2)cc1 [Compound 5568705]
Screen "Hit" [1, 5]: Y (hits were identified as compounds that reduced relative motility below 0.25 (75% reduction)) | Relative Motility [1, 6]: 0.100

C=CCn1c(NCc2ccccc2OC)nc2ccccc21 [Compound 7419109]
Screen "Hit" [1, 5]: Y (hits were identified as compounds that reduced relative motility below 0.25 (75% reduction)) | Relative Motility [1, 6]: 0.078

CCn1c(C)nc2cc(-c3ccccc3)ccc21 [Compound 5160815]
Screen "Hit" [1, 10]: Y (hits were identified as compounds that reduced relative motility below 0.25 (75% reduction)) | Relative Motility [1, 8]: 0.085

C=CCn1c(/C=C/c2ccccc2OC)nc2ccccc21 [Compound 7121977]
Screen "Hit" [1, 7]: Y (hits were identified as compounds that reduced relative motility below 0.25 (75% reduction)) | Relative Motility [1, 8]: 0.140

FC(OC(F)(F)F)c1nc2ccc(Cl)cc2[nH]1 (centres unmarked) [Compound 5119407]
Hit [1, 9]: non

CCn1c(/C=C/c2ccccc2)nc2ccccc21 [Compound 5958035]
Screen "Hit" [1, 7]: Y (hits were identified as compounds that reduced relative motility below 0.25 (75% reduction)) | Relative Motility [1, 8]: 0.160

Fc1cccc(F)c1CSc1nc2ccccc2[nH]1 [Compound 5616951]
Screen "Hit" [1, 5]: Y (hits were identified as compounds that reduced relative motility below 0.25 (75% reduction)) | Relative Motility [1, 6]: 0.130

CCCOc1ccc(Cn2c(CO)nc3ccccc32)cc1 [Compound 7356999]
Hit [1, 4]: non

CC(C)(C)c1ccc(Cn2c(N)nc3ccccc32)cc1 [Compound 5564334]
Screen "Hit" [1, 7]: Y (hits were identified as compounds that reduced relative motility below 0.25 (75% reduction)) | Relative Motility [1, 8]: 0.130

Cc1nc2cc(Cl)ccc2n1-c1ccccc1 [Compound 5119819]
Screen "Hit" [1, 7]: Y (hits were identified as compounds that reduced relative motility below 0.25 (75% reduction)) | Relative Motility [1, 8]: 0.230

Cc1nn(C)c(Oc2ccccc2)c1C=NOCc1ccc(C(=O)OC(C)(C)C)cc1 [Fenpyroximate, reference compound]
IC50 ([2]; wild-type (N2) mitochondria, read-out: C. elegans Complex I IC50): 21 nM | IC50 [3]: 48 nM
